{
  "source": "patent US20080124386A1",
  "about": "“APOPTOSIS-MIMICKING SYNTHETIC ENTITIES AND USE THEREOF IN MEDICAL TREATMENT” (Vasogen Ireland Limited, priority 2000, published 2008)",
  "origin": "cited, not measured here",
  "key": {"spatial memory": {"tested_on": "spatial memory", "details": "oral, 50 mg/day; compared with placebo"}, "Alzheimer's disease": {"tested_on": "Alzheimer's disease", "details": "oral, 300 mg/day; compared with placebo"}},
  "data": [
    {"substance": "phosphatidylserine [PS]", "values": [
      {"measurement": "spatial memory in animal models", "setting": "spatial memory", "result": "statistically significant improvements"},
      {"measurement": "treatment of Alzheimer's disease in humans", "setting": "Alzheimer's disease", "result": "statistically significant improvements"}
    ]}
  ]
}
